Data published in patent US10287313B2, “RNA monomers containing 0-acetal levulinyl ester groups and their use in RNA microarrays” (THE ROYAL INSTITUTION FOR THE ADVANCEMENT OF …, priority 2008, dated 2019).
In the oligonucleotide strings, read from the 5' end, every base follows the letter of its sugar. An asterisk marks phosphorothioate; unmarked linkages are phosphodiester. Other units and linkages are bracketed, terminal groups are in braces. A string of capitals states the bases alone. d = 2'-deoxy (DNA); r = 2'-OH (RNA)

Experiments:
[1] = Tm of 21-nt RNAs synthesized from various chemistries; type: physicochemical; conditions: base sequence r(GCUUGAAGUCUUUAAUUAA)-d(TT)
luciferase mRNA = test: RNAi assay that targets luciferase mRNA (luciferase gene knockdown by siRNA duplexes); type: cell-based; conditions: antisense strand annealed to common sense strand synthesized via 2′-TBDMS chemistry; light units relative to Renilla control; compared with TBDMS, TOM and ACE derived duplexes
Text: The fully deprotected antisense strands were synthesized by TBDMS, TOM, ACE and ALE chemistries, whereas the complementary sense strand of the siRNA duplex was synthesized by TBDMS chemistry.
As a final check, we evaluated the activity of all RNAs synthesized in an RNAi assay that targets luciferase mRNA (Dowler, T. et al. Nucleic Acids Res 2006, 34, 1669-75). Each of the antisense strands prepared by the various chemistries were allowed to anneal to a common sense strand synthesized via 2′-TBDMS chemistry.

Row | Substance | Tm [1] [°C] | gene silencing activity (luciferase gene knockdown) (luciferase mRNA)
1 | r(GCUUGAAGUCUUUAAUUAA)-d(TT) [ACE] (antisense rGrCrUrUrGrArArGrUrCrUrUrUrArArUrUrArAdTdT) [21-nt antisense siRNA strand from 2′-O-ACE chemistry, crude RNA purchased from Dharmacon] | 59.5 | –
2 | r(GCUUGAAGUCUUUAAUUAA)-d(TT) [ALE] (antisense rGrCrUrUrGrArArGrUrCrUrUrUrArArUrUrArAdTdT) [21-nt antisense siRNA strand synthesized from 2′-O-ALE chemistry] | 59.4 | same gene silencing activity
3 | r(GCUUGAAGUCUUUAAUUAA)-d(TT) [TBDMS] (RNA, 3' dTdT, backbone not given here) [21-nt antisense siRNA strand synthesized from 2′-O-TBDMS chemistry] | 59.8 | –
4 | r(GCUUGAAGUCUUUAAUUAA)-d(TT) [TOM] (antisense rGrCrUrUrGrArArGrUrCrUrUrUrArArUrUrArAdTdT) [21-nt antisense siRNA strand synthesized from 2′-O-TOM chemistry] | 60.1 | –
